ChEMBL document CHEMBL5252536, “Discovery of VU0467485/AZ13713945: An M4 PAM Evaluated as a Preclinical Candidate for the Treatment of Schizophrenia” (ACS Med Chem Lett, 2017)

Columns and labels:
[1] = biological target: T1, Muscarinic acetylcholine receptor M4 (Homo sapiens, UniProt P08173); test: Positive allosteric modulator activity at human M4 receptor expressed in CHO cells co-expressing Gqi5 in presence of EC20 concentration of acetylcholine by calcium mobilization assay; type: cell-based
T1 sequence (P08173 whole entry): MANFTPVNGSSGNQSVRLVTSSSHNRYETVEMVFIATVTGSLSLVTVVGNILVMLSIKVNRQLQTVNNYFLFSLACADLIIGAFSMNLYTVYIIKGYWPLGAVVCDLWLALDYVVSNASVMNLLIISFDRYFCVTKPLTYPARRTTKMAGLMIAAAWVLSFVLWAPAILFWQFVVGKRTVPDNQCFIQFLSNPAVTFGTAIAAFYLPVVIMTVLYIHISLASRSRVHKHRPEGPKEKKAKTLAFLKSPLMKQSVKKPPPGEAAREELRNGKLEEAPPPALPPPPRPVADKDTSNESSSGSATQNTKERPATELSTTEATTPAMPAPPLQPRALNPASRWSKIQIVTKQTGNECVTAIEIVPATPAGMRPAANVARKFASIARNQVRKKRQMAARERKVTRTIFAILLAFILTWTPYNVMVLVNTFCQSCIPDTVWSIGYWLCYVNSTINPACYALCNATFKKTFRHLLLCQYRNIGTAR

[2] = biological target: T2, Muscarinic acetylcholine receptor M4 (Homo sapiens) (UniProt P08173); test: Positive allosteric modulator activity at human M4 receptor expressed in CHO cells co-expressing Gqi5 assessed as maximal response to ACh by calcium mobilization assay relative to contol; type: cell-based; conditions: filed as positive allosteric modulator
T2 sequence (whole entry): T1 sequence (P08173 whole entry)

SMILES	EC50 ([1]; read-out: EC50) [nM]	Activity [2] [%]	pEC50 ([1]; cho)	EC50 ([1]; read-out: pEC50 (converted)) [nM]
COc1ncc(CNC(=O)c2sc3nnc(C)c(C)c3c2N)cc1F	142	80.8		
COc1c(F)cc(CNC(=O)c2sc3nnc(C)c(C)c3c2N)cc1F	84.1	75.3		
COc1ccc([C@@H](C)NC(=O)c2sc3nnc(C)c(C)c3c2N)cc1F	> 10000		< 5	
COc1ccc(CNC(=O)c2sc3nnc(C)c(C)c3c2N)cc1	130	83.7		
Cc1nnc2sc(C(=O)NCc3ccc(O)c(F)c3)c(N)c2c1C	59.1	83.1		60.3
COc1ccc(CNC(=O)c2sc3nnc(C)c(C)c3c2N)c(F)c1F	43.4	71.2		
Cc1nnc2sc(C(=O)NCc3ccc(O)cc3)c(N)c2c1C	96.7	69.8		
COc1ccc(CNC(=O)c2sc3nnc(C)c(C)c3c2N)cn1	239	76.9		
COc1cc(F)c(CNC(=O)c2sc3nnc(C)c(C)c3c2N)cc1F	41.4	68.5		
COc1ccc([C@H](C)NC(=O)c2sc3nnc(C)c(C)c3c2N)cc1F	508	62.4		
COc1ccc(CNC(=O)c2sc3nnc(C)c(C)c3c2N)c(F)c1	90.6	75.5		
COc1cc(F)c(CNC(=O)c2sc3nnc(C)c(C)c3c2N)c(F)c1	100	87.1		
